# Measurements taken from US7115619B2, “N8, N13 -disubstituted quino[4,3,2-kl]acridinium salts as therapeutic agents” (Cancer Research Technology Limited, priority 2000, dated 2006).
# Where a name gives a salt, the structure may show the parent alone.
# Experiments:
# [1] = Growth inhibition, sulforhodamine B (SRB) assay, CH1; format: cell-based; conditions: human, CH1 ovarian carcinoma cells, 96 hr incubation, read-out: Cytotoxicity IC50 CH1
# Experimental: (§1) Growth inhibition was measured in the following cells lines using the sulforhodamine B (SRB) assay: • A2780: human ovarian carcinoma cell line. • CH1: human ovarian carcinoma cell line. • SKOV-3: human ovarian carcinoma cell line. • A431: human vulval carcinoma cells (short telomeres). • GM847: carcinoma cell line immortalised by ALT pathway.
# (§2) Briefly, between 3000 and 6000 cells were seeded into the wells of 96-well microtiter plates and allowed to attach overnight. Test compounds (salts) were dissolved at 500 μM in water and immediately added to wells in quadruplicate at final concentrations of 0.05, 0.25, 1, 5 and 25 μM. Following an incubation period of 96 hr, remaining cells were fixed with ice-cold 10% w/v trichloroacetic acid (30 min) and stained with 0.4% SRB in 1% v/v acetic acid (15 min). Mean absorbance at 540 nm for each drug concentration was expressed as a percentage of the control untreated well absorbance, and IC50 values (concentration required to inhibit cell growth by 50%) were determined for each agent.
# [2] = Growth inhibition, sulforhodamine B (SRB) assay, A2780; format: cell-based; conditions: human, A2780 ovarian carcinoma cells, 96 hr incubation, read-out: Cytotoxicity IC50 A2780
# Experimental: as §1, §2
# [3] = Growth inhibition, sulforhodamine B (SRB) assay, SKOV-3; format: cell-based; conditions: human, SKOV-3 ovarian carcinoma cells, 96 hr incubation, read-out: Cytotoxicity IC50 SKOV-3
# Experimental: as §1, §2
# [4] = target: T1, telomerase (extracts from A2780 human ovarian carcinoma cells) (Homo sapiens, UniProt O14746); assay: Modified telomeric repeat amplification protocol (TRAP) assay, cell-free; format: biochemical; conditions: A2780 cell extract, agent up to 50 μM, 20 min, read-out: telIC50
# T1 construct: extracts from exponentially growing A2780 human ovarian carcinoma cells
# T1 sequence (O14746 whole entry): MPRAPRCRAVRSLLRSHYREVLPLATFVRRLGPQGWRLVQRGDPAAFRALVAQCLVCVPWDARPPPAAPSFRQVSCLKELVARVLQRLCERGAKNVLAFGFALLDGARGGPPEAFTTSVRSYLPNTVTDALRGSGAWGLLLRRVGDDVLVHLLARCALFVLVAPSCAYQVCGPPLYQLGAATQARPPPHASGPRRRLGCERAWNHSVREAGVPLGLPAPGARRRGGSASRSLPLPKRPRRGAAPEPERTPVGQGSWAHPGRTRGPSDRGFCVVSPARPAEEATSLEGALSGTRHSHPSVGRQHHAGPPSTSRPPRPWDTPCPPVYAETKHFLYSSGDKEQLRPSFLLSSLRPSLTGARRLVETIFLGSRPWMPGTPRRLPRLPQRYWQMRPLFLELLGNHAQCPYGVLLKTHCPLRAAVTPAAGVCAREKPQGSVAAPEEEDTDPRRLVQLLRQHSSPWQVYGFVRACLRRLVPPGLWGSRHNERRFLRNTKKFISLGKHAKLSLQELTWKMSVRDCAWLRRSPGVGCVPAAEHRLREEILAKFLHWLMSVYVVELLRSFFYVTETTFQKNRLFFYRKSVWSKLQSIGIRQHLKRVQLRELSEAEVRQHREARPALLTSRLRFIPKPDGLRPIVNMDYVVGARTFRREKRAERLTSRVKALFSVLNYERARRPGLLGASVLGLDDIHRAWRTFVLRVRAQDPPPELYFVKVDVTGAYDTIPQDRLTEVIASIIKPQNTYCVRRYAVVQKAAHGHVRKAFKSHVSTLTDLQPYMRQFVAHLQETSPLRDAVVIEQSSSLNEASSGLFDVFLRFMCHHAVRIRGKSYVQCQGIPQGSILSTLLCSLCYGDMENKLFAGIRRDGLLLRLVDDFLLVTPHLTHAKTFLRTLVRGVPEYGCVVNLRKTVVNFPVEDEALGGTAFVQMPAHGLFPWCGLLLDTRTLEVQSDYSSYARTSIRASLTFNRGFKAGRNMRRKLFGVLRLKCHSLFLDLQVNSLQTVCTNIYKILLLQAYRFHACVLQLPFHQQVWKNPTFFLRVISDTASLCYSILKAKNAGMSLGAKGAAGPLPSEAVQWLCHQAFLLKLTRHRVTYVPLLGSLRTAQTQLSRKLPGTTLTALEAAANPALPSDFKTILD
# Experimental: The ability of compounds to inhibit telomerase in a cell-free assay was assessed with a modified TRAP assay using extracts from exponentially growing A2780 human ovarian carcinoma cells. The TRAP assay was performed in 2 steps: (a) telomerase-mediated extension of the forward primer (TS: 5′-AATCCGTCGAGCAGAGTT, Oswel Ltd., Southampton, UK) contained in a 40 μL reaction mix comprising TRAP buffer (20 mM Tris-HCl (pH 8.3), 68 mM KCl, 1.5 mM MgCl2, 1 mM EGTA, 0.05% v/v Tween 20), 0.05 μg bovine serum albumin, 50 μM of each deoxynucleotide triphosphate, 0.1 μg TS primer, and 3 μCi of [α-^32P]dCTP (Amersham plc, UK). Protein (0.04 μg) was then incubated with the reaction mix±agent (acid addition and quaternary dimethiodide salts) at final concentrations of up to 50 μM for 20 min at […]. A lysis buffer (no protein) control, heat-inactivated protein control, and 50% protein (0.02 μg) control were included in each assay; and (b) while heating at […]. in a PCR block of a thermal cycler (Hybaid, UK) for 5 min to inactivate telomerase activity, 0.1 μg of reverse CX primer (3′-[…]-5′) and 2 Units of Taq DNA polymerase (“red hot”, Advanced Biotechnologies) were added. A 3-step PCR was then performed: 94° C. for 30 s, 50° C. for 30 s, and […]. for 1 min for 31 cycles. Telomerase-extended PCR products in the presence or absence of compounds were then determined either by electrophoretic separation using 8% w/w acrylamide denaturing gels and analysis by phosphorimaging or autoradiography, or by harvesting on Whatman filters (25 mm glass microfibre) and analysis by liquid scintillation counting.
# [5] = Growth inhibition, sulforhodamine B (SRB) assay, GM847; format: cell-based; conditions: human, GM847 cells (immortalised by ALT pathway), 96 hr incubation, read-out: Cytotoxicity IC50 GM847
# Experimental: as §2, with “Growth inhibition was measured in the following cells lines using the sulforhodamine B (SRB) assay: • A2780: human ovarian carcinoma cell line. • CH1: human ovarian carcinoma cell line. • SKOV-3: human ovarian carcinoma cell line. • A431: human vulval carcinoma cells (short telomeres). • GM847: carcinoma cell line immortalised by ALT pathway. Briefly,” for “Briefly,”
# [6] = Growth inhibition, sulforhodamine B (SRB) assay, A431; format: cell-based; conditions: human, A431 vulval carcinoma cells (short telomeres), 96 hr incubation, read-out: Cytotoxicity IC50 A431
# Experimental: as §2, with “Growth inhibition was measured in the following cells lines using the sulforhodamine B (SRB) assay: • A2780: human ovarian carcinoma cell line. • CH1: human ovarian carcinoma cell line. • SKOV-3: human ovarian carcinoma cell line. • A431: human vulval carcinoma cells (short telomeres). • GM847: carcinoma cell line immortalised by ALT pathway. Briefly,” for “Briefly,”
SMILES,IC50 at 96 h [1] [µM],IC50 at 96 h [2] [µM],IC50 at 96 h [3] [µM],IC50 [4] [µM],melting point [°C],IC50 at 96 h [5] [µM],IC50 at 96 h [6] [µM]
"CN1c2ccccc2-c2c3c1cccc3c1ccccc1[n+]2C [RHPS05, 8,13-Dimethyl-8H-quino[4,3,2-kl]acridinium iodide]",1.1,1.6,18,1.55,,,
"Cc1cc2c3c([n+](C)c4ccc(Cl)cc4c3c1)-c1cc(Cl)ccc1N2C (as salt: sulfate) [RHPS02, 3,11-Dichloro-6,8,13-trimethyl-8H-quino[4,3,2-kl]acridinium methylsulfate]",,,,,250 to 252,,
"Cc1cc2c3c([n+](C)c4ccccc4c3c1)-c1ccccc1N2C (as salt: sulphate) [RHPS01, 6,8,13-Trimethyl-8H-quino[4,3,2-kl]acridinium methyl sulphate]",,,,,190 to 192,,
"Cc1cc2c3c([n+](C)c4ccccc4c3c1)-c1ccccc1N2C [RHPS01, 6,8,13-Trimethyl-8H-quino[4,3,2-kl]acridinium methyl sulphate]",0.37,0.9,3.6,0.74,,,
"CN1c2ccccc2-c2c3c1cccc3c1cc(Cl)ccc1[n+]2C (as salt: iodide) [RHPS06, 3-Chloro-8,13-dimethyl-8H-quino[4,3,2-kl]acridinium iodide]",,,,,225 to 227,,
"COC(=O)CCc1ccc2c(c1)c1cccc3c1c([n+]2C)-c1ccccc1N3C [RHPS09, 3-(8,13-Dimethyl-8H-quino[4,3,2-kl]acridinium-3-yl)-propionic acid methyl ester iodide]",11.5,> 25,> 25,3.02,,,
"Cc1ccc2c(c1)-c1c3c(cc(C)cc3c3cc(C)ccc3[n+]1C)N2C [RHPS03, 3,6,8,11,13-Pentamethyl-8H-quino[4,3,2-kl]acridinium methyl sulphate]",0.29,0.33,0.75,0.18,,,
"COc1cc2c3c([n+](C)c4ccc(Cl)cc4c3c1)-c1ccccc1N2C [RHPS10, 3-Chloro-8,13-dimethyl-6-methoxy-8H-quino[4,3,2-kl]acridinium iodide]",1.1,,6.3,0.24,,0.8,3.2
"CN1c2ccccc2-c2c3c1cccc3c1cc(Cl)ccc1[n+]2C [RHPS06, 3-Chloro-8,13-dimethyl-8H-quino[4,3,2-kl]acridinium iodide]",0.5,1.1,12.5,0.26,,,
"CC(=O)Oc1cc2c3c([n+](C)c4ccccc4c3c1)-c1ccccc1N2C [RHPS11, 6-Acetoxy-8,13-dimethyl-8H-quino[4,3,2-kl]acridinium iodide]",1.6,,3.5,1.7,,17.7,1.7
"Cc1cc2c3c([n+](C)c4ccc(F)cc4c3c1)-c1cc(F)ccc1N2C [RHPS04, 3,11-Difluoro-6,8,13-trimethyl-8H-quino[4,3,2-kl]acridinium methyl sulphate]",0.5,1.1,23,0.31,,,
"COC(=O)/C=C/c1ccc2c(c1)c1cccc3c1c([n+]2C)-c1ccccc1N3C (as salt: iodide) [RHPS15, (E)-3-(8,13-Dimethyl-8H-quino[4,3,2-kl]acridinium-3-yl)-acrylic acid methyl ester iodide]",,,,,200 to 202,,
"COC(=O)Oc1cc2c3c([n+](C)c4ccccc4c3c1)-c1ccccc1N2C [RHPS13, 6-Methoxycarbonyloxy-8,13-dimethyl-8H-quino[4,3,2-kl]acridinium iodide]",0.2,,1.5,0.57,,0.5,0.4
"COC(=O)/C=C/c1ccc2c(c1)c1cccc3c1c([n+]2C)-c1ccccc1N3C [RHPS15, (E)-3-(8,13-Dimethyl-8H-quino[4,3,2-kl]acridinium-3-yl)-acrylic acid methyl ester iodide]",2.2,,19,0.19,,4.5,3.2
"CN1c2cc(Cl)ccc2-c2c3c1cccc3c1cc(Cl)ccc1[n+]2C [RHPS07, 3,10-Dichloro-8,13-dimethyl-8H-quino[4,3,2-kl]acridinium iodide]",3.8,14.5,> 25,0.94,,,
"COc1cc2c3c([n+](C)c4ccccc4c3c1)-c1ccccc1N2C [RHPS08, 8,13-Dimethyl-6-methoxy-8H-quino[4,3,2-kl]acridinium iodide]",0.13,0.62,3.6,0.47,,,
"Cc1cc2c3c([n+](C)c4ccc(Cl)cc4c3c1)-c1cc(Cl)ccc1N2C [RHPS02, 3,11-Dichloro-6,8,13-trimethyl-8H-quino[4,3,2-kl]acridinium methylsulfate]",1.4,1.3,9.3,0.24,,,
"COc1cc2c3c([n+](C)c4ccccc4c3c1)-c1ccc(Cl)cc1N2C [RHPS12, 10-Chloro-8,13-dimethyl-6-methoxy-8H-quino[4,3,2-kl]acridinium iodide]",0.3,,10,0.28,,0.4,1
"CN1c2ccccc2-c2c3c1cccc3c1cc(/C=C/C(=O)N3CCOCC3)ccc1[n+]2C [RHPS16, 8,13-Dimethyl-(E)-3-(3-morpholin-4-yl-3-oxo-propenyl)-8H-quino[4,3,2-kl]acridinium iodide]",17.8,,> 25,0.37,,> 25,12.5
"Cc1ccc2c(c1)-c1c3c(cc(C)cc3c3cc(C)ccc3[n+]1C)N2C (as salt: sulphate) [RHPS03, 3,6,8,11,13-Pentamethyl-8H-quino[4,3,2-kl]acridinium methyl sulphate]",,,,,240 to 242,,
